In paper PMC10818259, “Antioxidant and Inhibitory Activities of Filipendula glaberrima Leaf Constituents against HMG-CoA Reductase and Macrophage Foam Cell Formation” (Molecules, 2024):

Columns and labels:
[1] = test system: lipid peroxidation in liver homogenate; test: Inhibitory effect on lipid peroxidation (LPO) in liver homogenate, TBARS; type: biochemical, Sprague Dawley rats; settings: isolates and standards; rat liver homogenate; mean ± SD, n = 3; read-out: Antioxidant Activity (IC50) LPO
Excerpt: Assay for inhibitory effect of lipid peroxidation. Male Sprague Dawley rats were used in the […]
Technology (approval number: […]-2018-081). Experimental animals were […]
anesthetized with isoflurane and dissected. A 0.15 M ice-cold KCl solution was perfused through the liver portal vein to remove blood from the liver and extract the liver. The liver was homogenized in KCl solution at 10 times the liver’s weight , and the protein concentration was quantified by the Bradford protein method using bovine serum albumin as a standard. A lipid peroxidation test was performed using a slightly modified version of the method described.
Reaction mixtures consisted of 300 μL of liver ho mogenate (11 mg protein/mL) , 300 μL of 50 mM Tris -HCl buffer (pH 7.5) containing 10 μM FeSO 4, and 0.4 mM ascorbic acid. Test samples (10 μL) or DMSO blanks were added to the reaction mixture and incubated at 37 °C for 30 min. After incubation, lipid peroxidation was measured by forming thiobarbituric acid reactive substance s. The mixture was subjected to a reaction at 90 °C for 30 min, followed by cooling and subsequent centrifugation (5,000 × g) for 10 min. The absorbance of the resulting supernatant was d etermined at 535 nm, and the percentage of lipid peroxidation inhibition by the sample was computed. DMSO was utilized as a control instead of the test drug, and the […]

[2] = DPPH radical scavenging assay; settings: read-out: Antioxidant Activity (IC50) DPPH, isolates and standards, mean ± SD, n = 3
Experimental: As positive controls, ascorbic acid, quercetin, resveratrol, and Trolox were employed. Triplicate measurements were performed for each sample, and the mean values were determined.
DPPH radical scavenging assay.
The extracts and isolates were dissolved in dimethyl sulfoxide (DMSO) at concentrations
ranging from 0.1 to 10 mg/mL and 0.1 to 10 mM, respectively. Subsequently, they were
combined with an ethanol solution of DPPH (100 μM). The DPPH solution (190 μL per well)
and the samples (10 μL per well) were incubated in a 96-well microplate at 37 °C for 30 minutes
under dark conditions. The absorbance at 515 nm was quantified using a microplate reader, and
the percentage inhibition (%) of each sample was calculated by comparing it with the control
group treated with DMSO. Linear regression analysis was employed to estimate the IC50 values,
which indicated the concentration of test samples required to inhibit 50% of the free radicals.

[3] = Superoxide anion radical scavenging assay (xanthine/xanthine oxidase, NBT); type: biochemical; settings: isolates and standards; mean ± SD, n = 3; read-out: Antioxidant Activity (IC50) Superoxide Anion Radical
Excerpt: Superoxide anion radical scavenging assay.

HMG-CoA reductase (HMGR) = molecular target: T1, HMG-CoA reductase (HMGR) (Homo sapiens, UniProt P04035); test: HMG-CoA reductase (HMGR) inhibition assay, NADPH oxidation at 340 nm; type: biochemical
T1 sequence (P04035 426-888 limits assumed): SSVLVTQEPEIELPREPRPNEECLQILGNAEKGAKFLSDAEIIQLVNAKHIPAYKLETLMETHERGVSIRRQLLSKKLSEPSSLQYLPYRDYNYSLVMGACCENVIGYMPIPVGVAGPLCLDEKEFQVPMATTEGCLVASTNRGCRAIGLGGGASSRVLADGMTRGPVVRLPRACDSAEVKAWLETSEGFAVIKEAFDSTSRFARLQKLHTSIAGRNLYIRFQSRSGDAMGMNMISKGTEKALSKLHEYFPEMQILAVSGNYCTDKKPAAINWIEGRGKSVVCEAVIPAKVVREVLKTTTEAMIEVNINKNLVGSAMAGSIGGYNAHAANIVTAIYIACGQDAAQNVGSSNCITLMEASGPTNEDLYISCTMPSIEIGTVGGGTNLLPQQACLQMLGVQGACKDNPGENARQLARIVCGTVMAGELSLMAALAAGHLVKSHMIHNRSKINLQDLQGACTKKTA
Experimental: The HMGR activity assay was optimized using a 96-well microplate reader to measure nicotinamide adenine dinucleotide phosphate (NADPH) oxidation during enzyme turnover. Each well was loaded with a mixture comprising 89 μL of 50 mM sodium phosphate buffer (pH 6.8), 0.8 mM NADPH, and 2 μg of the enzyme (2–8 units/mg). To initiate the reaction, 1 μL of the test sample and 10 μL of 0.8 mM HMG-CoA were introduced to the well. […] The activity of HMGR was assessed by monitoring the reduction in NADPH absorbance at 340 nm for a duration of 900 s at 37 °C.

[4] = test system: THP-1 macrophage foam cells; test: ox-LDL-induced macrophage foam cell formation, Oil Red O staining; type: cell-based; settings: Homo sapiens, 50 μg/mL ox-LDL, 16 h, positive control, read-out: Inhibitory effect on foam cell formation
Experimental: This approach aimed to examine the impact of these substances on lipid accumulation and the formation of foam cells. First, we observed the effects of different concentrations (20, 40, and 60 μg/mL) of the solvent extracts on the THP-1 macrophage activity. […] As a result, we selected and optimized the concentration of 50 μg/mL for the solvent extract to be used in the subsequent experiments. […] Following the extraction of the intracellular dye using isopropanol, a quantitative assessment of the intracellular lipid content was conducted.
THP-1 cells (ATCC, TIB-202, Manassas, VA, USA) were obtained and maintained in RPMI-1640 medium (Cytiva, UT, USA), supplemented with 10% fetal bovine serum (FBS; Hyclone, Cytiva, Logan, UT, USA), penicillin (100 U/mL), streptomycin (100 μg/mL), and 2-mercaptoethanol (Sigma-Aldrich, Saint Louis, MO, USA) at a final concentration of 0.05 mM. The cells were cultured at 37 °C in a 5% CO2 atmosphere with humidity. The THP-1 cells in the suspension were treated with 50 nM phorbol-12-myristate-13-acetate (Sigma-Aldrich, USA) for 48 h. […]
THP-1 cells were seeded in 24-well plates at a density of 5 × 10^5 cells/mL and pretreated as described above. […] The absorbance at 450 nm was measured using a multi-plate reader (Synergy Neo, BioTek Instruments, Inc., Winooski, VT, USA) and statistically processed.

SMILES	IC50 [1] [µM]	IC50 [2] [µM]	IC50 [3] [µM]	IC50 (HMG-CoA reductase (HMGR)) [µM]	HMGR inhibition, result in words (HMG-CoA reductase (HMGR))	IC50 ([2]; listed as quercetin) [µM]	inhibition at 5 µM [4] [%]
Oc1ccc(/C=C/c2cc(O)cc(O)c2)cc1 [Resveratrol, reference compound]	47.6 ± 6.35	42.1 ± 1.91	> 50				
O=C1O[C@H]([C@@H](O)CO)C(O)=C1O [Vitamin C, ascorbic acid, reference compound]		31.7 ± 0.21	> 50				
O=C(O)[C@H]1O[C@@H](Oc2c(O)cc(O)c3c(=O)c(O)c(-c4ccc(O)cc4)oc23)[C@H](O)[C@@H](O)[C@@H]1O [Compound 11, kaempferol 8-O-glucuronic acid]	> 50	23 ± 0.45	17.7 ± 0.3	> 50			
O=C(OC1C(O)OC2COC(=O)c3cc(Oc4c(C(=O)O)cc(O)c(O)c4O)c(O)c(O)c3-c3c(cc(O)c(O)c3O)C(=O)OC2C1OC(=O)c1cc(O)c(O)c(O)c1)c1cc(O)c(O)c(O)c1 (stereo not shown) [Compound 2, rugosin B]	6.02 ± 0.14	3 ± 0.08	5.53 ± 0.21	17.7 ± 0.04			
COC(=O)c1cc(O)c(O)c(O)c1Oc1cc2c(c(O)c1O)-c1c(cc(O)c(O)c1O)C(=O)OC1C(COC2=O)OC(O)C(OC(=O)c2cc(O)c(O)c(O)c2)C1OC(=O)c1cc(O)c(O)c(O)c1 (stereo not shown) [Compound 1, Rugosin B methyl ester]	3.54 ± 0.29	3.62 ± 0.57	4.29 ± 0.23	1.46 ± 0.22			
Cc1c(C)c2c(c(C)c1O)CCC(C)(C(=O)O)O2 (stereo not shown) [Trolox, reference compound]	33.2 ± 3.6	31.3 ± 1.27	> 50				
O=C(OC1C(O)OC2COC(=O)c3cc(O)c(O)c(O)c3-c3c(cc(O)c(O)c3O)C(=O)OC2C1OC(=O)c1cc(O)c(O)c(O)c1)c1cc(O)c(O)c(O)c1 (stereo not shown) [Compound 6, tellimagrandin I]	3.93 ± 0.53	4.7 ± 0.14	4.1 ± 0.53	> 50			
O=C(OC[C@H]1OC(O)[C@H](OC(=O)c2cc(O)c(O)c(O)c2)[C@@H](OC(=O)c2cc(O)c(O)c(O)c2)[C@@H]1OC(=O)c1cc(O)c(O)c(O)c1)c1cc(O)c(O)c(O)c1 (stereo partly drawn) [Compound 8, 2,3,4,6-tetra-O-galloyl-D-glucose]	3.54 ± 0.15	20.9 ± 0.98	3.6 ± 0.23	13.8 ± 1.53			
O=C(O[C@@H]1O[C@@H]2COC(=O)c3cc(Oc4c(C(=O)O)cc(O)c(O)c4O)c(O)c(O)c3-c3c(cc(O)c(O)c3O)C(=O)O[C@H]2[C@H](OC(=O)c2cc(O)c(O)c(O)c2)[C@H]1OC(=O)c1cc(O)c(O)c(O)c1)c1cc(O)c(O)c(O)c1 [Compound 4, rugosin A]	3.75 ± 0.52	3.19 ± 0.13	3.21 ± 0.05	12.2 ± 0.5			
COC(=O)c1cc(O)c(O)c(O)c1Oc1cc2c(c(O)c1O)-c1c(cc(O)c(O)c1O)C(=O)O[C@H]1[C@H](OC(=O)c3cc(O)c(O)c(O)c3)[C@@H](OC(=O)c3cc(O)c(O)c(O)c3)[C@H](OC(=O)c3cc(O)c(O)c(O)c3)O[C@@H]1COC2=O [Compound 3, rugosin A methyl ester]	3.83 ± 0.52	4.27 ± 0.45	4.25 ± 0.11	8.4 ± 0.84			
O=C(OC[C@H]1O[C@@H](OC(=O)c2cc(O)c(O)c(O)c2)[C@H](OC(=O)c2cc(O)c(O)c(O)c2)[C@@H](OC(=O)c2cc(O)c(O)c(O)c2)[C@@H]1O)c1cc(O)c(O)c(O)c1 [Compound 9, 1,2,3,6-tetra-O-galloyl-β-D-glucose]	5.88 ± 0.13	3.94 ± 0.25	4.64 ± 0.45	41.5 ± 3.9	weak effect		
O=c1c(O)c(-c2ccc(O)c(O)c2)oc2cc(O)cc(O)c12 [Quercetin, reference compound]	7.45 ± 1.33	17.3 ± 1.09	21.3 ± 0.34			42.1	
O=C(O[C@@H]1O[C@@H]2COC(=O)c3cc(O)c(O)c(O)c3-c3c(cc(O)c(O)c3O)C(=O)O[C@H]2[C@H](OC(=O)c2cc(O)c(O)c(O)c2)[C@H]1OC(=O)c1cc(O)c(O)c(O)c1)c1cc(O)c(O)c(O)c1 [Compound 5, eugeniin]	3.61 ± 0.34	4.34 ± 0.17	4.75 ± 0.14	26.7 ± 0.9			
CC[C@H](C)C(=O)O[C@H]1C[C@H](O)C=C2C=C[C@H](C)[C@H](CC[C@@H](O)C[C@@H](O)CC(=O)O)[C@H]21 [Pravastatin]							77
O=C(O)[C@H]1O[C@@H](Oc2c(-c3ccc(O)c(O)c3)oc3cc(O)cc(O)c3c2=O)[C@H](O)[C@@H](O)[C@@H]1O [Compound 10, quercetin 3-glucuronic acid]	34.1 ± 2.98	15.7 ± 0.15	21.5 ± 2.03	> 50			
O=C(OC[C@H]1O[C@@H](OC(=O)c2cc(O)c(O)c(O)c2)[C@H](OC(=O)c2cc(O)c(O)c(O)c2)[C@@H](OC(=O)c2cc(O)c(O)c(O)c2)[C@@H]1OC(=O)c1cc(O)c(O)c(O)c1)c1cc(O)c(O)c(O)c1 [Compound 7, 1,2,3,4,6-penta-O-galloyl-β-D-glucose]	3.87 ± 0.61	3.81 ± 0.19	4.47 ± 0.07	4.98 ± 0.18			
